Measured values as given in ChEMBL document CHEMBL1201862, “PubChem BioAssay data set” (2004).
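All cell lines were grown in 96-well plates and treated with compound for 48 hours. At the GI50, growth is halved.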 Calls of active or inactive are those of the source. Cut-off read from the data, not from the text of the source: active = GI50 up to about 1.1 µM and inactive = higher.

Tests used:
Assay in all cases: NCI anticancer screen, dose series, 48 h
CAKI-1 = system: CAKI-1
DU-145 = system: DU-145
HCT-116 = system: HCT-116
HL-60 = system: HL-60
HOP-92 = system: HOP-92
KM12 = system: KM12
M14 = system: M14
MDA-MB-231 = system: MDA-MB-231
NCI-H23 = system: NCI-H23
OVCAR-3 = system: OVCAR-3
OVCAR-8 = system: OVCAR-8
PC-3 = system: PC-3
SF-295 = system: SF-295
SK-MEL-5 = system: SK-MEL-5
SR = system: SR
SW-620 = system: SW-620
HCC 2998 = system: HCC 2998
SK-MEL-2 = system: SK-MEL-2
UACC-62 = system: UACC-62
RXF 393 = system: RXF 393

Compound	GI50 (CAKI-1)	GI50 (DU-145)	GI50 (HCT-116)	GI50 (HL-60)	GI50 (HOP-92)	GI50 (KM12)	GI50 (M14)	GI50 (MDA-MB-231)	GI50 (NCI-H23)	GI50 (OVCAR-3)	GI50 (OVCAR-8)	GI50 (PC-3)	GI50 (SF-295)	GI50 (SK-MEL-5)	GI50 (SR)	GI50 (SW-620)	GI50 (HCC 2998)	GI50 (SK-MEL-2)	GI50 (UACC-62)	GI50 (RXF 393)
ClCCN1CCOC1=C1C=CC=C1	> 100 µM (inactive)	> 100 µM (inactive)	> 100 µM (inactive)	96.6 µM (inactive)	> 100 µM (inactive)	18.4 µM (inactive)	> 100 µM (inactive)	> 100 µM (inactive)	> 100 µM (inactive)	> 100 µM (inactive)	> 100 µM (inactive)	> 100 µM (inactive)	> 100 µM (inactive)	> 100 µM (inactive)	19.3 µM (inactive)	> 100 µM (inactive)	–	–	–	–
C=C(C)C(=O)CC[C@@H](C)[C@H]1[C@@H](OC2OC(CO)C(O)C(O)C2O)C[C@@]2(C)[C@@H]3C[C@H](O)C4C(C)(C)[C@@H](OC5OC(CO)C(O)C(O)C5O)CC[C@@]45C[C@@]35CC[C@]12C (some centres undefined)	66.4 µM (inactive)	> 100 µM (inactive)	> 100 µM (inactive)	19.7 µM (inactive)	> 100 µM (inactive)	> 100 µM (inactive)	> 100 µM (inactive)	> 100 µM (inactive)	87.3 µM (inactive)	> 100 µM (inactive)	> 100 µM (inactive)	> 100 µM (inactive)	71.6 µM (inactive)	46.6 µM (inactive)	71.1 µM (inactive)	> 100 µM (inactive)	47 µM (inactive)	> 100 µM (inactive)	> 100 µM (inactive)	–
O=C(NCCC1CN(C(=O)OCc2ccccc2)c2ccccc21)OCc1ccccc1 (centres undefined)	> 100 µM (inactive)	> 100 µM (inactive)	71.9 µM (inactive)	–	> 100 µM (inactive)	> 100 µM (inactive)	> 100 µM (inactive)	> 100 µM (inactive)	> 100 µM (inactive)	> 100 µM (inactive)	> 100 µM (inactive)	> 100 µM (inactive)	> 100 µM (inactive)	> 100 µM (inactive)	–	> 100 µM (inactive)	> 100 µM (inactive)	> 100 µM (inactive)	> 100 µM (inactive)	> 100 µM (inactive)
CC(=O)O[C@H]1C(=O)[C@@]2(C)C(C(OC(=O)c3ccccc3)[C@]3(O)CC(OC(=O)C(O)C(NC(=O)c4ccccc4)c4cccc(Cl)c4)C(C)=C1C3(C)C)[C@]1(OC(C)=O)CO[C@@H]1C[C@@H]2O (some centres undefined)	> 10 µM (inactive)	3.57 µM (inactive)	2.88 µM (inactive)	1.38 µM (inactive)	–	3.72 µM (inactive)	> 10 µM (inactive)	> 10 µM (inactive)	4.39 µM (inactive)	4.18 µM (inactive)	5.92 µM (inactive)	7.11 µM (inactive)	> 10 µM (inactive)	5.94 µM (inactive)	1.47 µM (inactive)	6.47 µM (inactive)	4.67 µM (inactive)	3.39 µM (inactive)	2.33 µM (inactive)	–
CC(=O)OC1CCC2(C)C(=CCC3C2CCC2(C)C3CC3OC4(CCC(C)CN4)C(C)C32)C1 (centres undefined)	> 100 µM (inactive)	> 100 µM (inactive)	> 100 µM (inactive)	> 100 µM (inactive)	> 100 µM (inactive)	> 100 µM (inactive)	> 100 µM (inactive)	> 100 µM (inactive)	> 100 µM (inactive)	> 100 µM (inactive)	> 100 µM (inactive)	> 100 µM (inactive)	> 100 µM (inactive)	> 100 µM (inactive)	80.2 µM (inactive)	> 100 µM (inactive)	–	> 100 µM (inactive)	> 100 µM (inactive)	> 100 µM (inactive)
N[C@H]1CCc2c1nc1c(c2-c2ccccc2)CC[C@@H]1N	14.8 µM (inactive)	24.2 µM (inactive)	18.1 µM (inactive)	15.7 µM (inactive)	21.3 µM (inactive)	28.9 µM (inactive)	16.3 µM (inactive)	18.3 µM (inactive)	25.2 µM (inactive)	–	39.8 µM (inactive)	15.3 µM (inactive)	18.5 µM (inactive)	15.9 µM (inactive)	31.5 µM (inactive)	12.3 µM (inactive)	21.4 µM (inactive)	18.5 µM (inactive)	–	–
N#Cc1ccc(/C=[N+](/C=c2ccc(=C=[N-])cc2)N(CCO)C2=NCCN2)cc1	> 100 µM (inactive)	> 100 µM (inactive)	> 100 µM (inactive)	> 100 µM (inactive)	–	> 100 µM (inactive)	> 100 µM (inactive)	> 100 µM (inactive)	> 100 µM (inactive)	> 100 µM (inactive)	> 100 µM (inactive)	> 100 µM (inactive)	> 100 µM (inactive)	> 100 µM (inactive)	> 100 µM (inactive)	> 100 µM (inactive)	> 100 µM (inactive)	> 100 µM (inactive)	> 100 µM (inactive)	–
COC1=CC(=O)c2c(cc(COP(N)(=O)N(CCBr)CCBr)n2C)C1=O (centres undefined)	< 0.01 µM (active)	< 0.01 µM (active)	< 0.01 µM (active)	0.0113 µM (active)	–	1 µM (active)	< 0.01 µM (active)	2.1 µM (inactive)	< 0.01 µM (active)	0.0822 µM (active)	< 0.01 µM (active)	1.11 µM (active)	< 0.01 µM (active)	0.418 µM (active)	< 0.01 µM (active)	< 0.01 µM (active)	–	1.7 µM (inactive)	< 0.01 µM (active)	0.0719 µM (active)
O=S(=O)(O)c1cc(S(=O)(=O)O)c2c(Nc3ccnc4ccccc34)ccc(S(=O)(=O)O)c2c1	> 100 µM (inactive)	> 100 µM (inactive)	> 100 µM (inactive)	> 100 µM (inactive)	–	> 100 µM (inactive)	> 100 µM (inactive)	> 100 µM (inactive)	> 100 µM (inactive)	> 100 µM (inactive)	> 100 µM (inactive)	> 100 µM (inactive)	> 100 µM (inactive)	> 100 µM (inactive)	–	> 100 µM (inactive)	> 100 µM (inactive)	> 100 µM (inactive)	> 100 µM (inactive)	> 100 µM (inactive)
COc1ccc2c(c1)c(=O)c1c(NCCN(C)C)ccc3c(=O)n(CCN(C)C)c(=O)n2c31	0.0283 µM (active)	0.0883 µM (active)	< 0.014 µM (active)	0.101 µM (active)	0.0483 µM (active)	0.0815 µM (active)	0.159 µM (active)	0.191 µM (active)	0.11 µM (active)	0.182 µM (active)	0.0601 µM (active)	0.0925 µM (active)	0.0853 µM (active)	0.126 µM (active)	< 0.01 µM (active)	< 0.0105 µM (active)	0.0247 µM (active)	0.182 µM (active)	0.156 µM (active)	–
CNc1nc(OC)c2c(n1)n(C)c[n+]2C [HETEROMINE B]	> 100 µM (inactive)	> 100 µM (inactive)	> 100 µM (inactive)	> 100 µM (inactive)	41.2 µM (inactive)	> 100 µM (inactive)	> 100 µM (inactive)	> 100 µM (inactive)	> 100 µM (inactive)	62.7 µM (inactive)	> 100 µM (inactive)	> 100 µM (inactive)	> 100 µM (inactive)	> 100 µM (inactive)	–	> 100 µM (inactive)	–	53.3 µM (inactive)	> 100 µM (inactive)	> 100 µM (inactive)
CN(C)c1ccc(/C=N/c2ccc(-c3nc4ccccc4o3)cc2)cc1	–	52.5 µM (inactive)	53.7 µM (inactive)	20.8 µM (inactive)	70.3 µM (inactive)	31.8 µM (inactive)	58.5 µM (inactive)	53.2 µM (inactive)	32.7 µM (inactive)	20.3 µM (inactive)	31.8 µM (inactive)	29.7 µM (inactive)	–	13 µM (inactive)	36 µM (inactive)	86.3 µM (inactive)	14.7 µM (inactive)	30.6 µM (inactive)	38.7 µM (inactive)	–
Cc1ccc(S(=O)(=O)N(CC(O)COc2ccccc2)c2c(F)c(F)cc(F)c2F)cc1 (centres undefined)	15.3 µM (inactive)	40.8 µM (inactive)	37 µM (inactive)	4.21 µM (inactive)	11.7 µM (inactive)	25.7 µM (inactive)	23.7 µM (inactive)	18.3 µM (inactive)	18.8 µM (inactive)	20.5 µM (inactive)	22.4 µM (inactive)	18.3 µM (inactive)	24 µM (inactive)	15.9 µM (inactive)	3.53 µM (inactive)	30.3 µM (inactive)	23.6 µM (inactive)	17.2 µM (inactive)	16.6 µM (inactive)	–
COC(=O)/C=C1\CCC(C)(C(=O)NS(=O)(=O)c2ccc(C)cc2)C1(C)C (centres undefined)	> 100 µM (inactive)	> 100 µM (inactive)	> 100 µM (inactive)	> 100 µM (inactive)	> 100 µM (inactive)	> 100 µM (inactive)	> 100 µM (inactive)	> 100 µM (inactive)	> 100 µM (inactive)	> 100 µM (inactive)	> 100 µM (inactive)	> 100 µM (inactive)	> 100 µM (inactive)	> 100 µM (inactive)	–	> 100 µM (inactive)	> 100 µM (inactive)	> 100 µM (inactive)	> 100 µM (inactive)	> 100 µM (inactive)
Cc1ccc(S(=O)(=O)NC(=O)NCC(N)=O)cc1	–	> 100 µM (inactive)	> 100 µM (inactive)	> 100 µM (inactive)	> 100 µM (inactive)	> 100 µM (inactive)	> 100 µM (inactive)	> 100 µM (inactive)	> 100 µM (inactive)	–	> 100 µM (inactive)	> 100 µM (inactive)	> 100 µM (inactive)	> 100 µM (inactive)	–	> 100 µM (inactive)	–	> 100 µM (inactive)	> 100 µM (inactive)	> 100 µM (inactive)
